Measurements taken from US4832875A, “Vitamin D3 derivative” (Taisho Pharmaceutical Co., Ltd., priority 1985, dated 1989).

How the values were obtained:
[1] = tested on: calcium level in the serum; details: as shown in Japanese Laid-Open Patent Publication No. 44860/1986; cited from earlier work
[2] = tested on: calcium level in serum in vitamin D-deficient rats; test: activity of increasing calcium level in serum in vitamin D-deficient rats (oral); format: in vivo, Wistar rats (male); details: for Percent increase in serum Ca level (control 100%) / Calcium in the serum: po, once a day over 3 days; for Calcium in the serum: control (ethanol) 8.60
Text: To confirm it in an in vivo (animal) test, however, its action of increasing the blood calcium level in vitamin D-deficient rats was examined.
Wistar rats (male, three weeks old) purchased from Japan Charles River Co. were fed 3 to 4 weeks with a vitamin D-deficient diet containing calcium (0.02%) and phosphorus (0.99%) to prepare vitamin D-deficient rats. The compound of this invention or 1,25-dihydroxy-26,27-dimethylvitamin D3 was orally administered to these animals once a day over 3 days. On the fourth day, blood was drawn from the animals, and calcium in the serum was measured by atomic absorptiometry.
As soon as the administration began, the feed was changed to one which was vitamin D-deficient but contained calcium in a normal amount (0.56%).

[3] = tested on: calcium level in the serum in vitamin D-deficient low-calcium rats; test: effect of inhibiting dissolution of calcium from bones: calcium level in serum in vitamin D-deficient low-calcium rats (intravenous); format: in vivo, Wistar rats (male); details: 500 P moles/100 g body weight, one intravenous administration, next day
Text: Vitamin D has both an action of calcium deposition on bones and an action of liberating calcium from the bones, and promotes bone formation when the balance between these actions is shifted toward the former. Accordingly, a vitamin D derivative which inhibits dissolution of calcium from bones can be expected to have a very strong bone-forming action. In the present test, calcium in the feed was limited to a low level, and under conditions in which no calcium absorption from the intestinal tract occurred, the activity to increase the calcium level in the serum was examined. This activity is considered to reflect calcium dissolution from the bones.
The following test was conducted in accordance with the method of C. Kaneko et al. [C. Kaneko, S. Yamada, A. Sugimoto, M. Katuta, and S. Sasaki: Steroids, 23, 75 (1974)].
Three week old Wistar rats (male) were purchased from Japan Charles River Co., and were fed for 19 days with a feed being deficient in vitamin D and containing low calcium (0.02%) to prepare vitamin D-deficient hypocalcemia rats. An ethanol solution of an assay compound was intravenously administered once to the rats. On the next day, blood was drawn from the animals, and the calcium level in the serum was measured by atomic absorptiometry (using a double beam atomic absorption photometer made by Shimazu Seisakusho; Model AA-650).

[4] = target: T1, 1,25-dihydroxyvitamin D3 receptor in the intestines of chicken embryo (Gallus gallus, UniProt O42392); test: receptor binding ability (in vitro), 1,25-dihydroxyvitamin D3 receptor, charcoal method
T1 sequence (O42392 1-451): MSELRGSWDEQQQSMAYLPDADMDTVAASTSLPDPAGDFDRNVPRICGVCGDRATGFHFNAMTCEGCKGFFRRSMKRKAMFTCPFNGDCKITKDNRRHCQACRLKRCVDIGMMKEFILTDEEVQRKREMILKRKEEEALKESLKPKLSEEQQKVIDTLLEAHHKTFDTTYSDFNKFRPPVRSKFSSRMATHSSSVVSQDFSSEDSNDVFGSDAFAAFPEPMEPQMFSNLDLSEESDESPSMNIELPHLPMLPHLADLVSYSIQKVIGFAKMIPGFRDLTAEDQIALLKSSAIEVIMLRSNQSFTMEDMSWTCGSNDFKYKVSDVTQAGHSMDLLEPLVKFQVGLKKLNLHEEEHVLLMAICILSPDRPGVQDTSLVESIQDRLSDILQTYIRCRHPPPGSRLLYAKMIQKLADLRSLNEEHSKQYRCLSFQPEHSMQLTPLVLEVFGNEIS
Experimental: The mixture was incubated at 0° C. for 3 hours.
The free assay compound and the assay compound bound to the receptor were separated by the charcoal method.

Row | Compound | action of increasing the calcium level in the serum compared with 1α-hydroxyvitamin D3 or 1,25-dihydroxyvitamin D3 (in words) [1] | Percent increase in serum Ca level (control 100%) ([2]; 600 P moles/rat) | Calcium in the serum ([2]; 600 P moles/rat) | Percent increase in serum Ca level (control 100%) ([2]; 1,200 P moles/rat) | Calcium in the serum ([2]; 1,200 P moles/rat) | activity to increase the calcium level in the serum compared with 1,25-dihydroxyvitamin D3 (in words) ([2]; inferred via 1,25-dihydroxy-26,27-dimethylvitamin D3 comparator) | action of increasing the calcium level in the serum (in words) ([2]; vitamin D-deficient rats, oral) | Percent increase in serum Ca level (control 100%) ([3]; control 100%) | Calcium in the serum ([3]; control (ethanol) 4.47, * significant at P <0.05 vs control) | IC50 [4]
1 | C=C1/C(=C\C=C2/CCC[C@]3(C)[C@@H]([C@H](C)CCCC(O)(CC)CC)CC[C@@H]23)C[C@@H](O)C[C@@H]1O [1,25-Dihydroxy-26,27-dimethyl-vitamin D3, 1,25-dihydroxy-26,27-dimethylvitamin D3, reference compound] | stronger action of increasing the calcium level in the serum than 1α-hydroxyvitamin D3 or 1,25-dihydroxyvitamin D3 | 105% | 9.00 mg/dL | 112% | 9.60 mg/dL |  |  |  |  | 
2 | C=C1/C(=C\C=C2/CCC[C@]3(C)[C@@H]([C@H](C)CCCC(F)(F)C(C)(C)O)CC[C@@H]23)C[C@@H](O)C[C@@H]1O [Compound of the invention, 1α,25-dihydroxy-24a,24a-difluoro-24-homovitamin D3] |  | 114% | 9.80 mg/dL | 119% | 10.20 mg/dL | stronger than that of 1,25-dihydroxyvitamin D3 | shows an action of increasing the calcium level in the serum | 94.2% | 4.21 mg/dL | 50 nM
